From patent US20250215013A1, “SUBSTITUTED TRICYCLIC COMPOUNDS AS PARP INHIBITORS AND THE USE THEREOF” (IMPACT THERAPEUTICS (SHANGHAI), INC., priority 2022, published 2025) come the findings set out here.

Each structure is given as a SMILES string. A value given as a limit tells only on which side of the number the result lay.

The target in test [1] is recombinant poly(ADP-ribose) polymerase 2 (PARP2) (Homo sapiens, UniProt Q9UGN5). The experiment in a line: PARP2 chemiluminescent assay. The format is biochemical. To be noted: inhibition of PARP2 enzyme activity, chemiluminescence.
recombinant poly(ADP-ribose) polymerase 2 (PARP2) (Homo sapiens, UniProt Q9UGN5), sequence (Q9UGN5 whole entry, looked up): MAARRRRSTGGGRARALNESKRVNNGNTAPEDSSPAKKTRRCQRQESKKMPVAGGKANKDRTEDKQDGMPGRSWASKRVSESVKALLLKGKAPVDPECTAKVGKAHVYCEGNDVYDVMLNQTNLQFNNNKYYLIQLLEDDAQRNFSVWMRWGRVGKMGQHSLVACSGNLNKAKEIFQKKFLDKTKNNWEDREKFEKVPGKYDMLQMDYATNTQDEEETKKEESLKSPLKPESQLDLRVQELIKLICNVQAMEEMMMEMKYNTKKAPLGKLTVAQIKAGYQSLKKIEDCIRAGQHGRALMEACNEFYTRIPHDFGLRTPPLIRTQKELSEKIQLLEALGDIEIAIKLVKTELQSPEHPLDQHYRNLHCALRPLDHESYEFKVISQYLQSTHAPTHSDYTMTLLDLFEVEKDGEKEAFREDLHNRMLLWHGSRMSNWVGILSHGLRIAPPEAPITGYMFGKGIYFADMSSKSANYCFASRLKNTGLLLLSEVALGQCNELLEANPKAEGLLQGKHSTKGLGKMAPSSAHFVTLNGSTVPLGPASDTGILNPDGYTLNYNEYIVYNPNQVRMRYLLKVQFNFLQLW
Test [2] concerns the target recombinant poly(ADP-ribose) polymerase 2 (PARP2). As to the kind of experiment: PARP2 chemiluminescent assay. To be noted: inhibition of PARP2 enzyme activity, chemiluminescence. The format is biochemical.
The test system of a further test is MDA-MB-436 cells. As to the kind of experiment: Growth inhibition assay against BRCA mutant human breast cancer MDA-MB-436 cell line (CCK-8). The format is cell-based. The note with it: proliferation of MDA-MB-436 cells, 7 days.
In another test the target is PDE3A (Homo sapiens (Human), UniProt Q14432). The experiment in a line: PDE3A fluorescence polarization (FP) assay. The format is biochemical. The note with it: PDE3A enzyme activity, FAM-cAMP substrate.
PDE3A, sequence (Q14432 whole entry): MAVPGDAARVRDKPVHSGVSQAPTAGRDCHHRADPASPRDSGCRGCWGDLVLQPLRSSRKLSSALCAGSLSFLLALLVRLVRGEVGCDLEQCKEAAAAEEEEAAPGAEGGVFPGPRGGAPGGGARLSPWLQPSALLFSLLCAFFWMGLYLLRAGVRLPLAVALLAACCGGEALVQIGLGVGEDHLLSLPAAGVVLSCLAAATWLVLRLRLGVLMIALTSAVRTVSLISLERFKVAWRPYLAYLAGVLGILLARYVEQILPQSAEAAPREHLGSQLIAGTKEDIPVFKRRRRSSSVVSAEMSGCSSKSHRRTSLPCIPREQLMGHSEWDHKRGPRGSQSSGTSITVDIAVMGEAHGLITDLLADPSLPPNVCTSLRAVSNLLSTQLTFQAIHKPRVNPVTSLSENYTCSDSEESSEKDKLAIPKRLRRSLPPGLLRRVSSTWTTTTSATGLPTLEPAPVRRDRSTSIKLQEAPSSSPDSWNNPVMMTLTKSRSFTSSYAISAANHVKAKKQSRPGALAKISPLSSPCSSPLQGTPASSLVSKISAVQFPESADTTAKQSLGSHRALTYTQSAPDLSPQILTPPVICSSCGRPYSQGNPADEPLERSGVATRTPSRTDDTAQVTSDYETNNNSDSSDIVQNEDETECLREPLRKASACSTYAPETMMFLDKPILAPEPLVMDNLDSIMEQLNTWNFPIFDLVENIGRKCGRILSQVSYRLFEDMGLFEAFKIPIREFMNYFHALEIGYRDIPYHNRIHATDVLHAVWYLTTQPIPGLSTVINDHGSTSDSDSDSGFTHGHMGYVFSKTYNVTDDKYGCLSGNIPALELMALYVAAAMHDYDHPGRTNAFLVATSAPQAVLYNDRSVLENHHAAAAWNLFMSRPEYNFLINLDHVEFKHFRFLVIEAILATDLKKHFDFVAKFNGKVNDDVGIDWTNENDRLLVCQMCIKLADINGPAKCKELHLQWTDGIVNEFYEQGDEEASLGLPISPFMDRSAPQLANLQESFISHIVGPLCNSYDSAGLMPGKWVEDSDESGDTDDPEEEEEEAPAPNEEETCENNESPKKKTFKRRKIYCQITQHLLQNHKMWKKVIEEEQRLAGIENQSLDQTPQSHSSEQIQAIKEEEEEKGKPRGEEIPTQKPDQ
Test [3] concerns the target recombinant poly(ADP-ribose) polymerase 1 (PARP1) (Homo sapiens (Human), UniProt P09874).

recombinant poly(ADP-ribose) polymerase 1 (PARP1), sequence (P09874 whole entry): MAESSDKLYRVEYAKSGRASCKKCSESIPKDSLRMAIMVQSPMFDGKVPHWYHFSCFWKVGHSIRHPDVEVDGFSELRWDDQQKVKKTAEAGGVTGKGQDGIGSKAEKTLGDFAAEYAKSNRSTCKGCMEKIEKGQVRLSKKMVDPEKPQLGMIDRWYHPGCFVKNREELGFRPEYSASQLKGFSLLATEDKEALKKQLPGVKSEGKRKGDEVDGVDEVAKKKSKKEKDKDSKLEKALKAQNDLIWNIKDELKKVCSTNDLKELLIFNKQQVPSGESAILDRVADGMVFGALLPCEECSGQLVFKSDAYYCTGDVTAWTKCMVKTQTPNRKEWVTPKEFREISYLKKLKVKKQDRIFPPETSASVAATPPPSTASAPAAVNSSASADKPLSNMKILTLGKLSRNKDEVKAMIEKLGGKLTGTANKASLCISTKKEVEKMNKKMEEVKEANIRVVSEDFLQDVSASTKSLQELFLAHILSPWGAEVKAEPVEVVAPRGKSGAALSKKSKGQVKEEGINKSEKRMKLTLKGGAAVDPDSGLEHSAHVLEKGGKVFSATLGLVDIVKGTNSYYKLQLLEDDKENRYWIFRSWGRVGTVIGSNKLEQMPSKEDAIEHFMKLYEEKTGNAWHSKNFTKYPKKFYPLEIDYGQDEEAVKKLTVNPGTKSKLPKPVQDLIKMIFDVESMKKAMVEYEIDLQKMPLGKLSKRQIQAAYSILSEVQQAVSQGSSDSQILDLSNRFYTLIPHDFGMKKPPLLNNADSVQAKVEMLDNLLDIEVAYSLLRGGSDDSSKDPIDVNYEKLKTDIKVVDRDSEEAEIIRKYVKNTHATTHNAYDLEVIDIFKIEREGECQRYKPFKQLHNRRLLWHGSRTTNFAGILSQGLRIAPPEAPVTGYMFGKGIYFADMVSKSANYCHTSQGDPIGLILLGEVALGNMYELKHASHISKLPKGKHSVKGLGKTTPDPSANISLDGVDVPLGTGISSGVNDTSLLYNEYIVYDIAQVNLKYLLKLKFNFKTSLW
Protocol for PDE3A: A PDE3A fluorescence polarization (FP) assay in a multi-step format was performed using black, round bottom 384-well plates (Corning, 4514). The testing compounds were serially diluted from stock solutions to 11 concentrations with a 3-fold dilution factor using DMSO. Fifty nl of compound dilutions was mixed with 5 μl of reaction buffer (10 mM Tris-HCl, pH 7.2, 10 mM MgCl2, 0.05% NaN3, 0.1% phosphate-free BSA) containing 0.2 μM FAM-cAMP (BPS, 60200) and 2 nM PDE3A (Sino Biological, 11908-H20B1) enzyme, and incubated for 60 min at 25° C. Afterwards, 15 μl binding agent mixture (Molecular Devices, R8124) was added to each well and the plate was incubated for 60 min at 25° C. The plate was loaded to a BMG PHERAstar FSX to read Fluorescence Polarization (FP) values at a setting of: Ex: 485 nm and Em: 520 nm. Emission light intensity with polarizers parallel (Emi) and emission light intensity with polarizers perpendicular (Emi) were recorded. The Polarization (mP) values were calculated using the following formula: mP=(SignalEml−SignalEm⊥)/(SignalEml+SignalEm⊥).
• 1) The inhibition % of a compound dose is calculated as:
[formula] • wherein mPMin and mPMax refer to the polarization readings in the condition of substrate only and substrate+enzyme, respectively. • 2) The IC50 values were calculated from non-linear curve fitting using following regression equation using a commercial curve fitting software GraphPad Prism 9.2.0.
[formula] • wherein, X refers to Log of compound concentration and Y refers to % Inhibition.

As to `CNC(=O)c1ccc(N2CCN(Cc3ccc4c(c3)[nH]c(=O)c3cscc34)CC2)c(C)n1` [Example 3, 7-((4-(2-methyl-6-(methylcarbamoyl)pyridin-3-yl)piperazin-1-yl)methyl)thieno[3,4-c]quinolin-4(5H)-one], the IC50 in test [1] turned out to be 18.3 nM.

Turning to `CNC(=O)c1ccc(N2CCN(Cc3ccc4c([nH]c(=O)c5cocc54)c3F)CC2)c(F)n1` [Example 115, 7-((4-(2-fluoro-6-(methylcarbamoyl)pyridin-3-yl)piperazin-1-yl)methyl)-6-fluorofuro[3,4-c]quinolin-4(5H)-one], the IC50 in test [2] was found to be 340 nM; in the test on MDA-MB-436 cells (Homo sapiens, MDA-MB-436, […]) it was 3.41 nM; on PDE3A it was 13.8 µM; in test [3], 0.47 nM.

On to `CNC(=O)c1ccc(N2CCN(Cc3ccc4c([nH]c(=O)n5cccc45)c3F)CC2)c(C)n1` [Example 48, 8-((4-(2-methyl-6-(methylcarbamoyl)pyridin-3-yl)piperazin-1-yl)methyl)-7-fluoropyrrolo[1,2-c]quinazolin-5(6H)-one], for which the IC50 was 1980 nM in test [2]; 4.58 nM in the test on MDA-MB-436 cells (Homo sapiens, MDA-MB-436, […]); more than 30 µM at PDE3A; 1.76 nM in test [3].

On to `CNC(=O)c1ccc(N2CCN(Cc3ccc4c(c3)[nH]c(=O)c3ccsc34)CC2)c(C)n1` [Example 1, 7-((4-(2-methyl-6-(methylcarbamoyl)pyridin-3-yl)piperazin-1-yl)methyl)thieno[3,2-c]quinolin-4(5H)-one], for which the IC50 in test [1] worked out at 78 nM.

On to `CNC(=O)c1ccc(N2CCN(Cc3cc4[nH]c(=O)c5c(F)cnn5c4cc3F)CC2)c(C)n1` [Example 183, 7-((4-(2-methyl-6-(methylcarbamoyl)pyridin-3-yl)piperazin-1-yl)methyl)-3,8-difluoropyrazolo[1,5-a]quinoxalin-4(5H)-one], for which the IC50 in test [2] was 1390 nM; in the test on MDA-MB-436 cells (Homo sapiens, MDA-MB-436, […]), 1.76 nM; against PDE3A, 1.59 µM; in test [3], 0.28 nM.

As for `CNC(=O)c1ccc(N2CCN(Cc3ccc4c([nH]c(=O)c5cn[nH]c54)c3F)CC2)c(F)n1` [Example 46, 7-((4-(2-fluoro-6-(methylcarbamoyl)pyridin-3-yl)piperazin-1-yl)methyl)-6-fluoro-1,5-dihydro-4H-pyrazolo[4,3-c]quinolin-4-one], the IC50 in test [2] is 194 nM; in the test with MDA-MB-436 cells (Homo sapiens, MDA-MB-436, […]) it was 16.5 nM; on PDE3A it was more than 30 µM; in test [3], 0.95 nM.

Consider `CNC(=O)c1ccc(N2CCN(Cc3ccc4c([nH]c(=O)c5cnn(C)c54)c3F)CC2)c(F)n1` [Example 92, 6-fluoro-7-((4-(2-fluoro-6-(methylcarbamoyl)pyridin-3-yl)piperazin-1-yl)methyl)-1-methyl-1,5-dihydro-4H-pyrazolo[4,3-c]quinolin-4-one], for which the IC50 in test [2] is 199 nM; in the test on MDA-MB-436 cells (Homo sapiens, MDA-MB-436, […]) it was 3.48 nM; against PDE3A, more than 30 µM; in test [3], 0.44 nM.

As for `CNC(=O)c1ccc(N2CCN(Cc3cc(F)c4c(c3)[nH]c(=O)c3c(F)cnn34)CC2)c(F)n1` [Example 177, 3,9-difluoro-7-((4-(2-fluoro-6-(methylcarbamoyl)pyridin-3-yl)piperazin-1-yl)methyl)pyrazolo[1,5-a]quinoxalin-4(5H)-one], the IC50 in test [2] turned out to be 93.5 nM; in the test on MDA-MB-436 cells (Homo sapiens, MDA-MB-436, […]), 1.58 nM; against PDE3A, 0.63 µM; in test [3], 0.32 nM.

Take `CNC(=O)c1ccc(N2CCN(Cc3ccc4c(c3)[nH]c(=O)c3sccc34)CC2)c(C)n1` [Example 5, 7-((4-(2-methyl-6-(methylcarbamoyl)pyridin-3-yl)piperazin-1-yl)methyl)thieno[2,3-c]quinolin-4(5H)-one]: the IC50 in test [1] was found to be 10.1 nM.

Regarding `CNC(=O)c1ccc(N2CCN(Cc3cc4[nH]c(=O)c5c(C)cnn5c4cc3F)CC2)c(F)n1` [Example 168, 8-fluoro-7-((4-(2-fluoro-6-(methylcarbamoyl)pyridin-3-yl)piperazin-1-yl)methyl)-3-methylpyrazolo[1,5-a]quinoxalin-4(5H)-one], the IC50 in test [2] was 145 nM; in the test with MDA-MB-436 cells (Homo sapiens, MDA-MB-436, […]) it was 8.02 nM; against PDE3A, more than 30 µM; in test [3], 0.61 nM.

Take `CNC(=O)c1ccc(N2CCN(Cc3ccc4c([nH]c(=O)c5c(C)cnn54)c3F)CC2)c(F)n1` [Example 58, 7-((4-(2-fluoro-6-(methylcarbamoyl)pyridin-3-yl)piperazin-1-yl)methyl)-6-fluoro-3-methylpyrazolo[1,5-a]quinoxalin-4(5H)-one]: the IC50 in test [2] was more than 10000 nM; in the test on MDA-MB-436 cells (Homo sapiens, MDA-MB-436, […]), 2.99 nM; on PDE3A it was more than 30 µM; in test [3], 1.38 nM.

Turning to `CNC(=O)c1ccc(N2CCN(Cc3cc(F)c4c(c3)[nH]c(=O)c3cscc34)CC2)c(C)n1` [Example 21, 7-((4-(2-methyl-6-(methylcarbamoyl)pyridin-3-yl)piperazin-1-yl)methyl)-9-fluorothieno[3,4-c]quinolin-4(5H)-one], in test [1], the IC50 turned out to be 13.3 nM.

For `CNC(=O)c1ccc(N2CCN(Cc3ccc4c([nH]c(=O)c5c(C)cnn54)c3F)CC2)c(C)n1` [Example 57, 7-((4-(2-methyl-6-(methylcarbamoyl)pyridin-3-yl)piperazin-1-yl)methyl)-6-fluoro-3-methylpyrazolo[1,5-a]quinoxalin-4(5H)-one], the IC50 was more than 10000 nM in test [2]; 10.6 nM in the test on MDA-MB-436 cells (Homo sapiens, MDA-MB-436, […]); more than 30 µM on PDE3A; 1.95 nM in test [3].

Consider `CNC(=O)c1ccc(N2CCN(Cc3ccc4c(c3)[nH]c(=O)c3cocc34)CC2)c(F)n1` [Example 143, 7-((4-(2-fluoro-6-(methylcarbamoyl)pyridin-3-yl)piperazin-1-yl)methyl)furo[3,4-c]quinolin-4(5H)-one], for which the IC50 worked out at 166 nM in test [2]; 3.5 nM in the test with MDA-MB-436 cells (Homo sapiens, MDA-MB-436, […]); 1.2 µM against PDE3A; 0.46 nM in test [3].

Consider `Cc1cnn2c1c(=O)[nH]c1c(F)c(CN3CCN(c4ccc(C(=O)NC5CC5)nc4F)CC3)ccc12` [Example 126, 7-((4-(2-fluoro-6-(cyclopropylcarbamoyl)pyridin-3-yl)piperazin-1-yl)methyl)-6-fluoro-3-methylpyrazolo[1,5-a]quinoxalin-4(5H)-one], for which the concentration for half-maximal inhibition (IC50) was 731 nM in test [2]; 4.5 nM with MDA-MB-436 cells (Homo sapiens, MDA-MB-436, […]); more than 25 µM at PDE3A; 0.48 nM in test [3].

For `CNC(=O)c1ccc(N2CCN(Cc3ccc4c([nH]c(=O)c5occc54)c3F)CC2)c(Cl)n1` [Example 68, 7-((4-(2-chloro-6-(methylcarbamoyl)pyridin-3-yl)piperazin-1-yl)methyl)-6-fluorofuro[2,3-c]quinolin-4(5H)-one], the IC50 in test [2] was determined as 1870 nM; with MDA-MB-436 cells (Homo sapiens, MDA-MB-436, […]) it was 4.72 nM; at PDE3A it was 22 µM; in test [3] it was 0.52 nM.

For `CCNC(=O)c1ccc(N2CCN(Cc3ccc4c([nH]c(=O)c5c(F)cnn54)c3F)CC2)c(F)n1` [Example 180, 7-((4-(2-fluoro-6-(ethylcarbamoyl)pyridin-3-yl)piperazin-1-yl)methyl)-3,6-difluoropyrazolo[1,5-a]quinoxalin-4(5H)-one], the 50% inhibitory concentration (IC50) is 431 nM in test [2]; 1.24 nM with MDA-MB-436 cells (Homo sapiens, MDA-MB-436, […]); more than 30 µM against PDE3A; 0.24 nM in test [3].

For `CNC(=O)c1ccc(N2CCN(Cc3ccc4c([nH]c(=O)c5c(F)cnn54)c3F)CC2)c(C)n1` [Example 121, 7-((4-(2-methyl-6-(methylcarbamoyl)pyridin-3-yl)piperazin-1-yl)methyl)-3,6-difluoropyrazolo[1,5-a]quinoxalin-4(5H)-one], the IC50 turned out to be 2820 nM in test [2]; 1.72 nM with MDA-MB-436 cells (Homo sapiens, MDA-MB-436, […]); 10.5 µM at PDE3A; 1.06 nM in test [3].

As to `CNC(=O)c1ccc(N2CCN(Cc3ccc4c(c3)[nH]c(=O)c3cnn(C)c34)CC2)c(C)n1` [Example 8, 7-((4-(2-methyl-6-(methylcarbamoyl)pyridin-3-yl)piperazin-1-yl)methyl)-1-methyl-1,5-dihydro-4H-pyrazolo[4,3-c]quinolin-4-one], in test [1], the concentration for half-maximal inhibition (IC50) is 54.9 nM.

`CNC(=O)c1ccc(N2CCN(Cc3ccc4c([nH]c(=O)c5c(F)cnn54)c3F)CC2)c(F)n1` [Example 122, 7-((4-(2-fluoro-6-(methylcarbamoyl)pyridin-3-yl)piperazin-1-yl)methyl)-3,6-difluoropyrazolo[1,5-a]quinoxalin-4(5H)-one]: the IC50 is 462 nM in test [2], 1.32 nM with MDA-MB-436 cells, more than 30 µM at PDE3A and 0.53 nM in test [3].

As for `CNC(=O)c1ccc(N2CCN(Cc3ccc4c([nH]c(=O)c5c(C)cnn54)c3F)CC2)c(C(F)(F)F)n1` [Example 133, 7-((4-(2-trifluoromethyl-6-(methylcarbamoyl)pyridin-3-yl)piperazin-1-yl)methyl)-6-fluoro-3-methylpyrazolo[1,5-a]quinoxalin-4(5H)-one], the IC50 in test [2] is more than 10000 nM; with MDA-MB-436 cells (Homo sapiens, MDA-MB-436, […]), 23 nM; against PDE3A, more than 30 µM; in test [3], 0.57 nM.

On to `CNC(=O)c1ccc(N2CCN(Cc3ccc4c([nH]c(=O)c5c(C)cnn54)c3F)CC2)c(C#N)n1` [Example 128, 7-((4-(2-cyano-6-(methylcarbamoyl)pyridin-3-yl)piperazin-1-yl)methyl)-6-fluoro-3-methylpyrazolo[1,5-a]quinoxalin-4(5H)-one], for which the IC50 was 2500 nM in test [2]; 1.58 nM in the test with MDA-MB-436 cells (Homo sapiens, MDA-MB-436, […]); more than 30 µM at PDE3A; 0.48 nM in test [3].

Consider `CNC(=O)c1ccc(N2CCN(Cc3cc4[nH]c(=O)c5c(F)cnn5c4cc3F)CC2)c(F)n1` [Example 182, 7-((4-(2-fluoro-6-(methylcarbamoyl)pyridin-3-yl)piperazin-1-yl)methyl)-3,8-difluoropyrazolo[1,5-a]quinoxalin-4(5H)-one], for which the IC50 in test [2] was 93.5 nM; in the test on MDA-MB-436 cells (Homo sapiens, MDA-MB-436, […]) it was 1.4 nM; against PDE3A it was more than 30 µM; in test [3], 0.32 nM.
